Results published in patent US9968557B1, “Method of preparing modified multilayered microstructures with enhanced oral bioavailability” (Florida A&M University, priority 2011, dated 2018).
Converted amounts (≈) assume the structure as drawn.

Experiments:
[1] = Solubility of DIM-P in buffers of different pH, assayed by HPLC; assay type: physicochemical
Experimental: (§1) Solubility measurements were assayed by HPLC. Five milligrams of DIM-C-pPhC6H5 (“DIM-P”) was suspended in 1 ml of different buffers having pH 2.0, 4.0, 5.0, 6.0, 7.0 and 8.0 in a centrifuge tubes. The tubes were placed at 37±0.1° C. and kept for shaking at 1500 rpm for 24 hours. The suspensions were centrifuged, and supernatant were filtered using 0.1 μm filters prior to HPLC analysis. Partition co-efficient of DIM-P was measured in an octanol-water system. Octanol and water were mixed in 1:1 concentration and 3 mg of DIM-P was added to 2 mL of mixture followed by vigorous shaking for 5 minutes. The mixture was separated by centrifugation and samples were collected and filtered through 0.1 μm filters prior to HPLC analysis.

[2] = Partition co-efficient in an octanol-water system; assay type: physicochemical; conditions: octanol-water 1:1
Experimental: as §1

solubility ([1]; at any pH): less than 1 μg/mL
solubility ([1]; pH 2.0, 37°C, 24 hours shaking): 0.18 ± 0.003 µg/mL (≈ 0.452 µM)
Maximum solubility ([1]; pH 8.0, 37°C, 24 hours shaking): 0.73 ± 0.09 µg/mL
sequence of solubility ([1]; rank order by pH): pH 8.0>6.0>4.0>2.0
log p value [2]: 6.97±0.12
Structure (SMILES): c1ccc(-c2ccc(C(c3c[nH]c4ccccc34)c3c[nH]c4ccccc34)cc2)cc1 [DIM-P, DIM-C-pPhC6H5]
